Laboratory results as given in patent publication US4017540A, “Method of use, composition, and compounds” (The Upjohn Company, priority 1972, dated 1977).
Where “and” joins values, the source holds several entries; their conditions need not be identical. Equal values may be shown once. Entries after “also recorded” stand apart in the source; their conditions may differ.

How the values were obtained:
anorexigenic activity = details: in vivo
insects and mites = test: insecticidal and miticidal activity (general); details: in vivo
parasitic worms = test: anthelmintic activity (general; sheep); details: in vivo
helminths [1] = test: preliminary test with worm infested lambs, helminths overall; assay type: in vivo; details: one lamb
Procedure: (§1) A preliminary test with lambs was effected by maintaining worm infested lambs under satisfactory environmental conditions with feed and water available ad libitum. Pretreatment fecal examinations were made in order to characterize and evaluate the parasitism of each animal. The presence of helminth ova was recorded in terms of the number of eggs per gram of feces.
(§2) On the day of treatment, each lamb was weighed and a dosage for it was calculated in terms of milligrams of compound per kilogram of body weight. The calculated dosage of compound was pulverized and packed in a gelatin capsule for oral administration.
In this preliminary test one lamb received 200 mg. p-toluoyl chloride phenylhydrazone per kilogram of body weight - a total dosage of 5.0 g.

Haemonchus [2] = test: preliminary test with worm infested lambs, Haemonchus; assay type: in vivo; details: one lamb, 300 mg./kg. oral
Procedure: as §1, §2

Ostertagia [3] = test: preliminary test with worm infested lambs, Ostertagia; assay type: in vivo; details: one lamb
Procedure: as §1, §2

Trichostrongylus [4] = test: preliminary test with worm infested lambs, Trichostrongylus; assay type: in vivo; details: one lamb
Procedure: as §1, §2

Nematodirus [5] = test: preliminary test with worm infested lambs, Nematodirus; assay type: in vivo; details: one lamb
Procedure: as §1, §2

Strongyloides [6] = test: preliminary test with worm infested lambs, Strongyloides; assay type: in vivo; details: one lamb
Procedure: as §1, §2

Oesophagostomum [7] = test: preliminary test with worm infested lambs, Oesophagostomum; assay type: in vivo; details: one lamb, 300 mg./kg. oral
Procedure: as §1, §2

Trichuris ovis = test: preliminary test with worm infested lambs, Trichuris; assay type: in vivo; details: one lamb, 400 mg./kg. oral
Procedure: as §1, §2

Haemonchus [8] = test: Example 31 lamb test, Haemonchus; assay type: in vivo; details: for average number of Haemonchus remaining: group average; for total number of Haemonchus remaining: group total; for mean percentage efficacy against Haemonchus: vs unmedicated controls
Procedure: (§3) At both dosages, the compound p-toluoyl chloride phenylhydrazone was efficacious against Haemonchus, Ostertagia, Nematodirus, Trichostrongylus, Strongyloides, Oesophagostomum, and Cooperia.
(§4) In th comprehesive test with 100 mg./kg. and 200 mg./kg. dosages of p-toluoyl chloride phenylhydrazone, five lambs were used for each dosage level, and five lambs were maintained as unmedicated controls. Daily egg counts in the feces were made before and after treatment. The lambs were killed and examined post-mortem for worms present 11 days after treatment. Helminth populations were recovered, enumerated and identified.
(§5) The mean percentage efficacy against specific helminths in the test lambs was calculated by subtracting the average number of the helminths observed in the treated lambs, postmortem, from the average number observed in the unmedicated controls, post-mortem; dividing the remainder by the latter average number; and multiplying by 100. Accordingly, the means percentage efficacies against the various helminths identified in the test lambs were calculated and found to be as follows: […]

Ostertagia [9] = test: Example 31 lamb test, Ostertagia; assay type: in vivo; details: for average number of Ostertagia remaining: group average; for total number of Ostertagia remaining: group total; for mean percentage efficacy against Ostertagia: vs unmedicated controls
Procedure: as §3, §4, §5

Trichostrongylus [10] = test: Example 31 lamb test, Trichostrongylus; assay type: in vivo; details: for average number of Trichostrongylus remaining: group average; for total number of Trichostrongylus remaining: group total; for mean percentage efficacy against Trichostrongylus: vs unmedicated controls
Procedure: as §3, §4, §5

Nematodirus [11] = test: Example 31 lamb test, Nematodirus; assay type: in vivo; details: for average number of Nematodirus remaining: group average; for total number of Nematodirus remaining: group total; for mean percentage efficacy against Nematodirus: vs unmedicated controls
Procedure: as §3, §4, §5

Strongyloides [12] = test: Example 31 lamb test, Strongyloides; assay type: in vivo; details: for average number of Strongyloides remaining: group average; for total number of Strongyloides remaining: group total; for mean percentage efficacy against Strongyloides: vs unmedicated controls
Procedure: as §3, §4, §5

Oesophagostomum [13] = test: Example 31 lamb test, Oesophagostomum; assay type: in vivo; details: for average number of Oesophagostomum remaining: group average; for total number of Oesophagostomum remaining: group total; for mean percentage efficacy against Oesophagostomum: vs unmedicated controls
Procedure: as §3, §4, §5

Bunostomum = test: Example 31 lamb test, Bunostomum; assay type: in vivo; details: 200 mg./kg.
Procedure: as §3, §4, §5

Cooperia = test: Example 31 lamb test, Cooperia; assay type: in vivo; details: for average number of Cooperia remaining: group average; for total number of Cooperia remaining: group total; for mean percentage efficacy against Cooperia: vs unmedicated controls
Procedure: as §3, §4, §5

Trichuris = test: Example 31 lamb test, Trichuris; assay type: in vivo; details: for average number of Trichuris remaining: group average; for total number of Trichuris remaining: group total
Procedure: as §4, §5

tapeworm Moniezia = test: Example 31 lamb test, tapeworm; assay type: in vivo
Procedure: as §3, §4, §5

helminths [14] = test: Example 31 lamb test, helminths overall; assay type: in vivo; details: 100 mg. and 200 mg. per kg
Procedure: as §3, §4, §5

lambs = details: in vivo
Procedure: as §4, with “At both dosages, the compound p-toluoyl chloride phenylhydrazone was efficacious against Haemonchus, Ostertagia, Nematodirus, Trichostrongylus, Strongyloides, Oesophagostomum, and Cooperia. […] In” for “In”

## ClC(=NNc1cc(Cl)ccc1Cl)c1ccccc1 [benzoyl chloride (2,5-dichlorophenyl)hydrazone]
Anorexigenic activity
  anorexigenic activity: have anorexigenic activity

## O=[N+]([O-])c1ccc(NN=C(Cl)c2ccccc2)c([N+](=O)[O-])c1 [Benzoyl chloride (2,4-dinitrophenyl)hydrazone, reference compound]
Insects and mites
  insecticidal and miticidal activity: relatively inactive

## Fc1c(F)c(F)c(C(Cl)=NNc2ccccc2)c(F)c1F [pentafluorobenzoyl chloride phenylhydrazone]
Insects and mites
  insecticidal and miticidal activity: outstanding insecticidal and miticidal agent

## ClC(=NNc1c(Cl)cc(Cl)cc1Cl)c1ccc(Cl)cc1 [p-chlorobenzoyl chloride (2,4,6-trichlorophenyl)hydrazone]
Anorexigenic activity
  anorexigenic activity: anorexigenic activity

## Cc1ccc(C(Cl)=NNc2ccccc2)cc1 [p-toluoyl chloride phenylhydrazone]
Parasitic worms
  anthelmintic activity: effective against worms; also recorded: efficacious anthelmintic agents
Helminths [1]; 200 mg./kg. oral
  effectiveness of the dosage: somewhat effective
  helminth eggs in the feces: significantly fewer helminth eggs in the feces
  numbers of helminths at necropsy: reduced numbers of helminths at necropsy
Helminths [1]; 300 mg./kg. oral
  helminth egg counts: reduced significantly (except Trichuris)
  worm infestation on necropsy: low
Helminths [1]; 400 mg./kg. oral
  egg counts: significantly lowered egg counts
  worms at necropsy: absence of worms
Haemonchus [2]
  activity against Haemonchus (egg counts and necropsy): established activity
Ostertagia [3]; 300 mg./kg. oral
  activity against Ostertagia (egg counts and necropsy): established activity
Ostertagia [3]; 400 mg./kg. oral
  activity against Ostertagia: Activity
Trichostrongylus [4]; 300 mg./kg. oral
  activity against Trichostrongylus (egg counts and necropsy): established activity
Trichostrongylus [4]; 400 mg./kg. oral
  activity against Trichostrongylus: Activity
Nematodirus [5]; 300 mg./kg. oral
  activity against Nematodirus (egg counts and necropsy): established activity
Nematodirus [5]; 400 mg./kg. oral
  activity against Nematodirus: Activity
Strongyloides [6]; 300 mg./kg. oral
  activity against Strongyloides (egg counts and necropsy): established activity
Strongyloides [6]; 400 mg./kg. oral
  activity against Strongyloides: Activity
Oesophagostomum [7]
  activity against Oesophagostomum (egg counts and necropsy): established activity
Trichuris ovis
  activity against Trichuris ovis: lack of noticeable activity
Haemonchus [8]; 100 mg. and 200 mg. per kg
  efficacy against Haemonchus (in words): efficacious
Haemonchus [8]; 100 mg./kg.
  number of Haemonchus recovered at necropsy, individual lamb: 2 and 0
  average number of Haemonchus remaining: < 1
  total number of Haemonchus remaining: 2
  mean percentage efficacy against Haemonchus: 99.9%
Haemonchus [8]; 200 mg./kg.
  number of Haemonchus recovered at necropsy, individual lamb: 0 and 1
  average number of Haemonchus remaining: < 1
  total number of Haemonchus remaining: 1
  mean percentage efficacy against Haemonchus: 99.9%
Ostertagia [9]; 100 mg. and 200 mg. per kg
  efficacy against Ostertagia (in words): efficacious
Ostertagia [9]; 100 mg./kg.
  number of Ostertagia recovered at necropsy, individual lamb: 0
  average number of Ostertagia remaining: 0
  total number of Ostertagia remaining: 0
  mean percentage efficacy against Ostertagia: 100%
Ostertagia [9]; 200 mg./kg.
  number of Ostertagia recovered at necropsy, individual lamb: 0
  average number of Ostertagia remaining: 0
  total number of Ostertagia remaining: 0
  mean percentage efficacy against Ostertagia: 100%
Trichostrongylus [10]; 100 mg. and 200 mg. per kg
  efficacy against Trichostrongylus (in words): efficacious
Trichostrongylus [10]; 100 mg./kg.
  number of Trichostrongylus recovered at necropsy, individual lamb: 0 and 15
  average number of Trichostrongylus remaining: 4
  total number of Trichostrongylus remaining: 15
  mean percentage efficacy against Trichostrongylus: 98.7%
Trichostrongylus [10]; 200 mg./kg.
  number of Trichostrongylus recovered at necropsy, individual lamb: 0
  average number of Trichostrongylus remaining: 0
  total number of Trichostrongylus remaining: 0
  mean percentage efficacy against Trichostrongylus: 100%
Nematodirus [11]; 100 mg. and 200 mg. per kg
  efficacy against Nematodirus (in words): efficacious
Nematodirus [11]; 100 mg./kg.
  number of Nematodirus recovered at necropsy, individual lamb: 0
  average number of Nematodirus remaining: 0
  total number of Nematodirus remaining: 0
  mean percentage efficacy against Nematodirus: 100%
Nematodirus [11]; 200 mg./kg.
  number of Nematodirus recovered at necropsy, individual lamb: 0
  average number of Nematodirus remaining: 0
  total number of Nematodirus remaining: 0
Nematodirus [11]; 200 mg./kg., *= only one lamb infected
  mean percentage efficacy against Nematodirus: 100%
Strongyloides [12]; 100 mg. and 200 mg. per kg
  efficacy against Strongyloides (in words): efficacious
Strongyloides [12]; 100 mg./kg.
  number of Strongyloides recovered at necropsy, individual lamb: 2 and 0 and 11
  average number of Strongyloides remaining: 3
  total number of Strongyloides remaining: 13
  mean percentage efficacy against Strongyloides: 97.9%
Strongyloides [12]; 200 mg./kg.
  number of Strongyloides recovered at necropsy, individual lamb: 0
  average number of Strongyloides remaining: 0
  total number of Strongyloides remaining: 0
  mean percentage efficacy against Strongyloides: 100%
Oesophagostomum [13]; 100 mg. and 200 mg. per kg
  efficacy against Oesophagostomum (in words): efficacious
Oesophagostomum [13]; 100 mg./kg.
  number of Oesophagostomum recovered at necropsy, individual lamb: 0
  average number of Oesophagostomum remaining: 0
  total number of Oesophagostomum remaining: 0
  mean percentage efficacy against Oesophagostomum: 100%
Oesophagostomum [13]; 200 mg./kg.
  number of Oesophagostomum recovered at necropsy, individual lamb: 0 and 3
  average number of Oesophagostomum remaining: < 1
  total number of Oesophagostomum remaining: 3
  mean percentage efficacy against Oesophagostomum: 90.6%
Bunostomum
  number of Bunostomum recovered at necropsy, individual lamb: 2 and 1
Bunostomum; group average
  average number of Bunostomum remaining: 1.5
Bunostomum; group total
  total number of Bunostomum remaining: 3
Bunostomum; vs unmedicated controls
  mean percentage efficacy against Bunostomum: 97%
Cooperia; 100 mg. and 200 mg. per kg
  efficacy against Cooperia (in words): efficacious
Cooperia; 100 mg./kg.
  number of Cooperia recovered at necropsy, individual lamb: 0
  average number of Cooperia remaining: 0
  total number of Cooperia remaining: 0
Cooperia; 100 mg./kg., *= only one lamb infected
  mean percentage efficacy against Cooperia: 100%
Cooperia; 200 mg./kg.
  number of Cooperia recovered at necropsy, individual lamb: 0
  average number of Cooperia remaining: 0
  total number of Cooperia remaining: 0
  mean percentage efficacy against Cooperia: 100%
Trichuris; 100 mg./kg.
  number of Trichuris recovered at necropsy, individual lamb: 31 and 83 and 3 and 37 and 4
  average number of Trichuris remaining: 32
  total number of Trichuris remaining: 158
Trichuris; 100 mg./kg., vs unmedicated controls
  mean percentage efficacy against Trichuris: 0%
Trichuris; 200 mg./kg.
  number of Trichuris recovered at necropsy, individual lamb: 6 and 64 and 28 and 56
  average number of Trichuris remaining: 39
  total number of Trichuris remaining: 154
Tapeworm Moniezia; 100 mg. and 200 mg. per kg
  activity against the tapeworm Moniezia: activity against the tapeworm Moniezia was observed
Tapeworm Moniezia; 200 mg./kg.
  activity against tapeworm: positive
  number of tapeworm recovered at necropsy, individual lamb: 0
Tapeworm Moniezia; 200 mg./kg., group average
  average number of tapeworm remaining: 0
Tapeworm Moniezia; 200 mg./kg., group total
  total number of tapeworm remaining: 0
Helminths [14]
  overall anthelmintic activity in lambs: excellent activity
lambs
  signs of toxicity to the lambs: absence of signs of toxicity

## ClC(=NNc1ccccc1)c1ccccc1 [benzoyl chloride phenylhydrazone]
Parasitic worms
  anthelmintic activity: effective against worms; also recorded: efficacious anthelmintic agents
